Read-outs that look alike come from different tables or passages of the source.
Columns and labels:
[1] = test system: 290 kinases (excluding mutants); conditions: cited from earlier work; for Gini: 38 inhibitors on 290 non-mutant kinases; for S10x: fraction of kinases hit at 10 times the Kd of the target
[2] = test system: 222 human kinases; test: Millipore kinase profiling (radioactive filter binding activity assay at [ATP] = KM,ATP) and selectivity metrics calculated from it; assay type: biochemical; design: selectivity score: scale not given here; conditions: for Ka-Gini score / Pmax / S10x / selectivity score: calculated from Millipore activity data; for selectivity entropy: calculated from Millipore activity data (pEC50), [ATP] = KM,ATP
Excerpt: As a next step we selected 16 compounds from the public profile (Ambit), and measured activity data on these using a different profiling service (Millipore, data available as Additional file 2). […] Also for these new data, we calculated the selectivity metrics (Uitdehaag_S2). In the ideal case, the selectivity values are similar irrespective of profiling technology (in the same way that a Kd value is ideally independent of laboratory and assay format). The data of both methods are plotted in Figure 2.
(§1) It is worth to note that the partition coefficient is the same as ϕl in our entropy equation (eq. 2).
The Gini score was calculated from data on %-inhibition. […] In addition, to work more directly with Kds, we also introduce a Ka-Gini score, in which association constants are used for rank-ordering the kinase profile. […] All calculations were done in Microsoft Excel.
For comparing profiles across methods (Figure 2), we selected 16 kinase inhibitors of the Ambit profile (Table 2) and submitted these to the kinase profiling service from Millipore (http://www.millipore.com/drugdiscovery/svp3/kpservices, data available as Additional file 2). Both profiling methods are described earlier and differ (among other variations) in the following way: Ambit uses a competitive binding setup in absence of ATP on kinases from T7 or HEK293 expression systems. Millipore uses a radioactive filter binding activity assay, with kinases purified from Escherichia coli or baculovirus expression systems.

[3] = test system: 290 kinases (excluding mutants); assay type: binding; conditions: for number of kinases inhibited below 3 μM: Ambit profile; for number of kinases inhibited below 3 μM / entropies (selectivity entropy, Ssel): 290 kinases; for Ka-Gini: Gini score calculated directly on Kas of the Ambit dataset (Kds of ref 5); for entropies (selectivity entropy, Ssel): calculated from Kds of the Ambit dataset (ref 5)
Excerpt: Having defined the entropy, we next investigated its performance relative to the most widely-used methods, on a public profiling dataset of 38 inhibitors on 290 non-mutant kinases (Table 1 and Additional file 1). […] To this we added a Ka-Gini value and the selectivity entropy. The Ka-Gini is a Gini score directly calculated on Kas, without reverting to %-inhibition values (see below). […] In addition, to get an overview of the profiling raw data, we appended an activity-based heat map (Uitdehaag_S1).
as §1
The Gini score was calculated from data on %-inhibition. […] In addition, to work more directly with Kds, we also introduce a Ka-Gini score, in which association constants are used for rank-ordering the kinase profile. […] All calculations were done in Microsoft Excel. […]

[4] = target: PDGFRβ; conditions: Ambit profiling raw data; cited from earlier work
[5] = Ambit dataset, values taken from earlier work
[6] = rank among 38 inhibitors, Ambit dataset
[7] = Ambit dataset, fraction of kinases hit below 3 μM, values taken from earlier work

| SMILES | Gini [1, 5] | S10x [1, 5] | Pmax (partition index) [1, 5] | potencies on the 4 kinases hit with roughly equal potencies ([1]; Ambit profile, 4 kinases not named) [nM] | S3uM (selectivity score S(3 μM)) [1] | Ka-Gini score [2] | Pmax [2] | S10x [2] | selectivity score [2] | selectivity entropy [2] | number of kinases inhibited below 3 μM [3] [kinases] | Ka-Gini [3] | entropies (selectivity entropy, Ssel) [3] | selectivity rank by Ka-Gini [3, 6] | selectivity rank by Pmax [3, 6] | selectivity rank by selectivity entropy [3, 6] | S3uM (selectivity score S(3 μM)) [1, 7] | Kd [4] [nM] |
| --- | --- | --- | --- | --- | --- | --- | --- | --- | --- | --- | --- | --- | --- | --- | --- | --- | --- | --- |
| COc1cc2c(N3CCN(C(=O)Nc4ccc(OC(C)C)cc4)CC3)ncnc2cc1OCCCN1CCCCC1 [MLN-518, tandutinib] | 0.74 | 0.01 | 0.26 | 2 to 10 | 0.06 | 0.993 | 0.621 | 0.005 | 0.032 | 1.300 | 10 | 0.98 | 1.58 | 14 | 26 | 15 |  |  |
| O=C(O)c1ccc(Nc2ncc3c(n2)-c2ccc(Cl)cc2C(c2c(F)cccc2F)=NC3)cc1 [MLN-8054] | 0.75 | 0.01 | 0.36 |  |  | 0.980 | 0.617 | 0.002 | 0.154 | 1.903 |  | 0.97 | 1.95 |  |  |  | 0.13 |  |
| Oc1cccc(-c2nc(N3CCOCC3)c3oc4ncccc4c3n2)c1 [PI-103] | 0.41 | 0.00 | 0.97 |  |  | 0.995 | 0.561 | 0.005 | 0.014 | 0.876 |  | 0.99 | 0.05 |  |  |  |  |  |
| Cc1[nH]c(/C=C2\C(=O)Nc3ccc(F)cc32)c(C)c1C(=O)NC[C@H](O)CN1CCOCC1 [SU-14813] | 0.70 | 0.02 | 0.18 |  |  |  |  |  |  |  |  | 0.97 | 2.04 |  |  |  | 0.51 | 0.29 |
| CNC(=O)c1cc(Oc2ccc(NC(=O)Nc3ccc(Cl)c(C(F)(F)F)c3)cc2)ccn1 [Sorafenib, sorafenib] | 0.82 | 0.10 |  |  |  | 0.975 | 0.149 | 0.029 |  |  |  | 0.97 |  |  |  |  |  |  |
| CCN(CC)CCNC(=O)c1c(C)[nH]c(/C=C2\C(=O)Nc3ccc(F)cc32)c1C [Sunitinib, sunitinib] | 0.67 | 0.02 |  |  |  |  | 0.107 | 0.038 |  |  | 181 |  |  |  |  |  |  |  |
| Cc1cc(Nc2cc(N3CCN(C)CC3)nc(Sc3ccc(NC(=O)C4CC4)cc3)n2)[nH]n1 [VX-680, tozasertib] | 0.76 | 0.03 | 0.15 |  |  | 0.972 | 0.278 | 0.020 | 0.199 | 2.625 |  | 0.93 | 3.09 |  |  |  | 0.38 |  |
| O=c1ncn2nc(Sc3ccc(F)cc3F)ccc2c1-c1c(Cl)cccc1Cl [VX-745] | 0.51 | 0.00 | 0.92 |  |  | 0.997 | 0.820 | 0.005 |  | 0.590 |  | 0.99 | 0.28 |  |  |  | 0.03 |  |
| COc1cc2c(Nc3ccc(Br)cc3F)ncnc2cc1OCC1CCN(C)CC1 [ZD-6474, vandetanib] | 0.79 | 0.26 |  |  |  | 0.963 | 0.117 | 0.041 |  |  | 79 | 0.94 |  |  |  |  |  |  |

Source: publication PMC3100252, “A theoretical entropy score as a single value to express inhibitor selectivity” (BMC Bioinformatics, 2011)
